According to PMC8112869, “Therapeutic inhibition of keratinocyte TRPV3 sensory channel by local anesthetic dyclonine” (eLife, 2021):

Tests used:
Format in all cases: cell-based
TRPV3 L630W = molecular target: T1, TRPV3 L630W (Mus musculus, UniProt Q8K424, L630W); test: Whole-cell recording of TRPV3 mutant L630W in HEK 293T cells; details: 2-APB (1 mM)-evoked, –60 mV, read-out: IC50 for inhibition of TRPV3 mutant
T1 construct: expressed in transfected cells; host or cells: HEK 293T
From the text: (§1) The WT mouse TRPV3 (mTRPV3), human TRPV3 (hTRPV3), rat TRPV1, rat TRPV2, rat TRPM8, and mouse TRPA1 cDNAs were generously provided by Dr. Feng Qin (State University of New York at Buffalo, Buffalo, USA). The GFP-mTRPV3 WT and the mutants (mTRPV3-G573S and mTRPV3-G573C) in pcDNA4/TO vector were gifts from Dr. Michael X Zhu (The University of Texas Health Science Center at Houston, Houston, USA). The WT fTRPV3 was kindly provided by Dr. Makoto Tominaga (Department of Physiological Sciences, SOKENDAI, Okazaki, Japan). All mutations were made using the overlap-extension polymerase chain reaction method as previously described ([Tian et al., 2019]). The resulting mutations were then verified by DNA sequencing. […]
(§2) Conventional whole-cell and excised patch-clamp recording methods were used. […] For a subset of recordings, currents were amplified using an Axopatch 200B amplifier (Molecular Devices, Sunnyvale, CA) and recorded through a BNC-2090/MIO acquisition system (National Instruments, Austin, TX) using QStudio developed by Dr. Feng Qin at State University of New York at Buffalo. […] As determined by the conductance tests, the solution around a patch under study was fully controlled by the application of a flow rate of 100 μl/min or greater. […]

TRPV3 (G573S) = molecular target: T2, TRPV3 (G573S) (Mus musculus, UniProt Q8K424, G573S); test: Whole-cell currents of TRPV3 (G573S) expressed in T-Rex 293 cells
T2 construct: expressed in transfected cells; host or cells: T-Rex 293
From the text: as §1, §2

TRPV2 = molecular target: T3, TRPV2 (Rattus norvegicus, UniProt Q9WUD2); test: Whole-cell recording of 2-APB-activated TRPV2 in HEK 293T cells
T3 construct: expressed in transfected cells; host or cells: HEK 293T
From the text: as §1, §2

T3 sequence (Q9WUD2 whole entry): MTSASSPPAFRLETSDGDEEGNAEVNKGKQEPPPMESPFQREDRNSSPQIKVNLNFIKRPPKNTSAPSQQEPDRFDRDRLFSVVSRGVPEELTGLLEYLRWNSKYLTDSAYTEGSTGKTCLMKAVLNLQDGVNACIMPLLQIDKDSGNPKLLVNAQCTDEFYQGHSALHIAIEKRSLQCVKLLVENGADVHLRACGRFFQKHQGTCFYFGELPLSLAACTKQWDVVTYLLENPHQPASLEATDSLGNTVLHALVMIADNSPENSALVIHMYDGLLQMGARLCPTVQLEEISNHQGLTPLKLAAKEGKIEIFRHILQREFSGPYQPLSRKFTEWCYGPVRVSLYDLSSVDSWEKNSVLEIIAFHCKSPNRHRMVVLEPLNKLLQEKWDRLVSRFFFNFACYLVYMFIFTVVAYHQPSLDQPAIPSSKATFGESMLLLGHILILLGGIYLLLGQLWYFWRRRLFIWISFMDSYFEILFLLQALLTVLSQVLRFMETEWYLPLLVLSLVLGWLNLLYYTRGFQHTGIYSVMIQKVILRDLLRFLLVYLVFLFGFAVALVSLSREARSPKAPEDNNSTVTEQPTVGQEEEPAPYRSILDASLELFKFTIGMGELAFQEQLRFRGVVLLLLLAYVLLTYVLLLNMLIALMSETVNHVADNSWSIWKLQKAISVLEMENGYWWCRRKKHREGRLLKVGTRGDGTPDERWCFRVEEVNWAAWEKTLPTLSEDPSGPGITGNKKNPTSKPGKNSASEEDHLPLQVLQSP
T2 sequence (Q8K424 whole entry G573S): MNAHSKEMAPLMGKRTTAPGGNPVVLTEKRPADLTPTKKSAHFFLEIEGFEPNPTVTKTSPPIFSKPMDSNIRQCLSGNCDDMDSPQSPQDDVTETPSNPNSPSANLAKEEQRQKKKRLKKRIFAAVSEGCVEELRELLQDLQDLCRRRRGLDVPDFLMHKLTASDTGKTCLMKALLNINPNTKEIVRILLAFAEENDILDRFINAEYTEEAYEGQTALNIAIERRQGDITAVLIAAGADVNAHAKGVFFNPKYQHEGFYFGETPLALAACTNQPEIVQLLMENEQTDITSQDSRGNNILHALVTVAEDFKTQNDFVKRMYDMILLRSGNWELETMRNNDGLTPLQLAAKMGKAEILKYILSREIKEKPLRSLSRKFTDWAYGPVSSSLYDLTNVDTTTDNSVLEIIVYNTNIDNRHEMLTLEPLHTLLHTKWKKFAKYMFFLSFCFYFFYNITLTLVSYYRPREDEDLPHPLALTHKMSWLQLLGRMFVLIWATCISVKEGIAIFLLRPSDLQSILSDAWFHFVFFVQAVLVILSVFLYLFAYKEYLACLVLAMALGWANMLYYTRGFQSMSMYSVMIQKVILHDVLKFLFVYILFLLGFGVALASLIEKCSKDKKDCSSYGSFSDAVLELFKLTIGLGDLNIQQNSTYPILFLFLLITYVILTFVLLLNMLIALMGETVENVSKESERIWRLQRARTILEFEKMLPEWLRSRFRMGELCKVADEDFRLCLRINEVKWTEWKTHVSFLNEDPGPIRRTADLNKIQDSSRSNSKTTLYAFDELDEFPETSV
T1 sequence (Q8K424 whole entry L630W): as the sequence (Q8K424 whole entry G573S) above, with S573G, L630W counted along it

## CCCCOc1ccc(C(=O)CCN2CCCCC2)cc1 [dyclonine]
TRPV3 L630W
  IC50: 30.8 ± 2.2 µM
TRPV3 (G573S); 10 μM dyclonine, –60 mV, leak subtracted with 20 μM RR
  reduction of spontaneous activities: 74% ± 3%
TRPV3 (G573S); presence of dyclonine
  300 μM 2-APB-evoked responses, of control level: 10% ± 2%
TRPV2
  Hill coefficient nH: 2.9 ± 0.50
TRPV2; 10 μM dyclonine, 2-APB-activated
  reduction in current amplitude: 6% ± 1%
